Measured values reported in US9045493B2, “Furo[3,2-b]- and thieno[3,2-b]pyridin derivatives” (Merck Patent GmbH, priority 2012, dated 2015).
pIC50: −log10 of the molar value.

Legend:
[1] = molecular target: T1, TANK binding kinase (TBK1) (Homo sapiens, UniProt Q9UHD2); test: TBK1 enzyme assay (384-well Flashplate kinase assay); type: biochemical; conditions: 10 μM ATP, 120 Min at 30° C.
T1 sequence (Q9UHD2 1-729): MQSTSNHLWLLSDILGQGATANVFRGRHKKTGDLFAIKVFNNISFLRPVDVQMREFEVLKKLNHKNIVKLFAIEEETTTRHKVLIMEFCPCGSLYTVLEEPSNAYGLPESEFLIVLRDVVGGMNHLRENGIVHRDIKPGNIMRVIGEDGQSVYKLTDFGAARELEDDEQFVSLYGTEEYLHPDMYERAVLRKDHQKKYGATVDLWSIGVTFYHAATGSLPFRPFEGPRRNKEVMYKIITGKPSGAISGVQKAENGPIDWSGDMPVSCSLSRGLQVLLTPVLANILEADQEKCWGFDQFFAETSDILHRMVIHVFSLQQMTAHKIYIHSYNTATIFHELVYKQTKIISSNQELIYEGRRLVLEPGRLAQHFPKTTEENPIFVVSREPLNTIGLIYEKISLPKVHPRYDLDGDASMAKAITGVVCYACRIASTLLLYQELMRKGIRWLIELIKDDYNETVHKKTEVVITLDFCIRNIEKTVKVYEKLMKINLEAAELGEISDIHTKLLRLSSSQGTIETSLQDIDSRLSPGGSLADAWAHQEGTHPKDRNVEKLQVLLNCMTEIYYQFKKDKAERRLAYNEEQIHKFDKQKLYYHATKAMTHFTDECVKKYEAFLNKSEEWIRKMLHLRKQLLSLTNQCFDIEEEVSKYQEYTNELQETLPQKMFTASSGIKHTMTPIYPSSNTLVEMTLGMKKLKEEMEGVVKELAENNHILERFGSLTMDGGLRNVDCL
Experimental: The kinase assay is performed as 384-well Flashplate assay (for e.g. Topcount measurement.
0.6 nM TANK binding kinase (TBK1), 800 nM biotinylated MELK-derived peptide (Biotin-Ah-Ah-[…]) and 10 μM ATP (spiked with 0.25 μCi ^33P-ATP/well) are incubated in a total volume of 50 μl (10 mM MOPS, 10 mM Mg-acetat, 0.1 mM EGTA, 1 mM DTT, 0.02% Brij35, 0.1% BSA, pH 7.5) with or without test compound for 120 Min at 30° C. The reaction is stopped with 25 μl 200 mM EDTA. After 30 Min at room temperature the liquid is removed and each well washed thrice with 100 μl 0.9% sodium chloride solution. Nonspecific reaction is determined in presence of 100 nM Staurosporine. Radioactivity is measured in a Topcount (PerkinElmer). Results (e.g. IC50-values) are calculated with program tools provided by the IT-department (e.g. AssayExplorer, Symyx).

IKKε = molecular target: T2, IKKε (Homo sapiens, UniProt Q14164); test: IKKε kinase assay (384-well Flashplate); type: biochemical; conditions: 10 μM ATP, 2 hours at 30° C.; read-out: IKKε enzyme assay IC50
T2 sequence (Q14164 1-716): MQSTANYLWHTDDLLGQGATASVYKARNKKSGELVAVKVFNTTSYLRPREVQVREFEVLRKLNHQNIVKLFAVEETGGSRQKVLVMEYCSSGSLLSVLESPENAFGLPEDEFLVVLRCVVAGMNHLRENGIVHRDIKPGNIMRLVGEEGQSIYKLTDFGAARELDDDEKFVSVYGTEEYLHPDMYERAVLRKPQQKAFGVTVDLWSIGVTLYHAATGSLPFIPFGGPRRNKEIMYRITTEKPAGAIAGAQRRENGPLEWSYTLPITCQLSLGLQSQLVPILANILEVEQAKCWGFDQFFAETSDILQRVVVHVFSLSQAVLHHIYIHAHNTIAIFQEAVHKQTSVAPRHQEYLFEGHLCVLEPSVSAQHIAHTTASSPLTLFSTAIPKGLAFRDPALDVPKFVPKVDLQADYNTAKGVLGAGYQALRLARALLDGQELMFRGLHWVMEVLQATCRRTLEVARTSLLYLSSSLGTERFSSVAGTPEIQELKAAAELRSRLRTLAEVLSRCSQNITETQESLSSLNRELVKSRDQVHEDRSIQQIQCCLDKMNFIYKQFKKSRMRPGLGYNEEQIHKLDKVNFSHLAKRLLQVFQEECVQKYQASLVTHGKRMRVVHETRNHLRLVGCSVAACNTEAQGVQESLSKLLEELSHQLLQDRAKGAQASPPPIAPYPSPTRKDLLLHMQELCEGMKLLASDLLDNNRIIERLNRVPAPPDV
Experimental: The kinase assay is performed either as 384-well Flashplate assay (for e.g. Topcount measurement).
1 nM IKKε, 800 nM biotinylated IκBα(19-42) peptide (Biotin-C6-C6-[…]) and 10 μM ATP (spiked with 0.3 μCi ^33P-ATP/well) are incubated in a total volume of 50 μl (10 mM MOPS, 10 mM Mg-acetat, 0.1 mM EGTA, 1 mM Dithiothreitol, 0.02% Brij35, 0.1% BSA, 0.1% BioStab, pH 7.5) with or without test compound for 2 hours at 30° C. The reaction is stopped with 25 μl 200 mM EDTA. After 30 Min at room temperature the liquid is removed and each well washed thrice with 100 μl 0.9% sodium chloride solution. […] Radioactivity is measured with Topcount (PerkinElmer). Results (e.g. IC50-values) are calculated with program tools provided by the IT-department (e.g. AssayExplorer, Symyx).

Compound	pIC50 [1]	pIC50 (IKKε)
COc1cc(-c2cc3nccc(-c4ccc(OCC5CC5)c(C#N)c4)c3o2)ccc1C(=O)N1CCNCC1 [Compound A50]	> 6.52	> 6.52
CCN(CCN(C)C)C(=O)c1ccc(-c2cc3nccc(-c4ccc(OC5CCOCC5)c(C#N)c4)c3s2)cc1OC [Compound A51]	> 6.52	> 6.52
COc1cc(-c2cc3nccc(-c4ccc(OC5CCOCC5)c(C#N)c4)c3s2)ccc1C(=O)N1CCNCC1 [Compound A52]	> 6.52	> 6.52
N#Cc1cc(-c2ccnc3cc(-c4ccc(C(=O)N5CCNCC5)cc4)sc23)ccc1OC1CCOCC1 [Compound A53]	> 6.52	> 6.52
N#Cc1cc(-c2ccnc3cc(-c4cnn(CCCO)c4)oc23)ccc1OC1CCOCC1 [Compound A54]	> 6.52	> 6.52
Cc1occc1-c1cc2nccc(-c3ccc(OC4CCOCC4)c(C#N)c3)c2o1 [Compound A55]	5.52 to 6.52	> 6.52
N#Cc1cc(-c2ccnc3cc(-c4ccc(N5CCOCC5)nc4)oc23)ccc1OC1CCOCC1 [Compound A56]	> 6.52	> 6.52
N#Cc1cc(-c2ccnc3cc(-c4cnc5ccccc5c4)oc23)ccc1OC1CCOCC1 [Compound A57]	4.30 to 5.52	5.52 to 6.52
N#Cc1cc(-c2ccnc3cc(-c4cccc5[nH]ccc45)oc23)ccc1OC1CCOCC1 [Compound A58]	> 6.52	> 6.52
CC(CO)(CCl)COc1ccc(-c2ccnc3cc(-c4ccc(C(=O)N5CCNCC5)cc4)oc23)cc1C#N (centres unmarked) [Compound A59]	> 6.52	> 6.52
CC(CO)(CO)COc1ccc(-c2ccnc3cc(-c4ccc(C(=O)N5CCNCC5)cc4)oc23)cc1C#N [Compound A60]	5.52 to 6.52	> 6.52
CN1CCN(C(=O)c2ccc(-c3cc4nccc(-c5ccc(OCC6(C)COC6)c(C#N)c5)c4o3)cc2)CC1 [Compound A61]	> 6.52	> 6.52
CN(CCO)C(=O)c1ccc(-c2cc3nccc(-c4ccc(OCC5(C)COC5)c(C#N)c4)c3o2)cc1 [Compound A62]	> 6.52	> 6.52
CN(CCO)C(=O)c1ccc(-c2cc3nccc(-c4ccc(OC5CCOC5)c(C#N)c4)c3o2)cc1 (centres unmarked) [Compound A63]	> 6.52	> 6.52
CCOc1ncccc1-c1cc2nccc(-c3ccc(OC4CCOCC4)c(C#N)c3)c2o1 [Compound A64]	> 6.52	> 6.52
N#Cc1cc(-c2ccnc3cc(-c4cncc(C(=O)N5CCOCC5)c4)oc23)ccc1OC1CCOCC1 [Compound A65]	> 6.52	> 6.52
COc1cncc(-c2cc3nccc(-c4ccc(OC5CCOCC5)c(C#N)c4)c3o2)c1 [Compound A66]	5.52 to 6.52	> 6.52
N#Cc1cc(-c2ccnc3cc(-c4cnn(C5CCN(CCO)CC5)c4)oc23)ccc1OC1CCOCC1 [Compound A67]	> 6.52	> 6.52
COc1cc(-c2cc3nccc(-c4ccc(OC5CCOC5)c(C#N)c4)c3o2)ccc1C(=O)N1CCNCC1 (centres unmarked) [Compound A68]	> 6.52	> 6.52
N#Cc1cc(-c2ccnc3cc(-c4cnn(C5CCN(CCCO)CC5)c4)oc23)ccc1OC1CCOCC1 [Compound A69]	> 6.52	> 6.52
CS(=O)(=O)c1cncc(-c2cc3nccc(-c4ccc(OC5CCOCC5)c(C#N)c4)c3o2)c1 [Compound A70]	5.52 to 6.52	5.52 to 6.52
N#Cc1cc(-c2ccnc3cc(-c4ccc5cn[nH]c5c4)oc23)ccc1OC1CCOCC1 [Compound A71]	5.52 to 6.52	> 6.52
N#Cc1cc(-c2ccnc3cc(-c4ccc(C(=O)N5CCNCC5)cc4)oc23)ccc1N1CCCC1 [Compound A72]	> 6.52	> 6.52
N#Cc1cc(-c2ccnc3cc(-c4ccc(C(=O)N5CCNCC5)cc4)oc23)ccc1N1CCOCC1 [Compound A73]	> 6.52	> 6.52
CN1CCN(C(=O)c2ccc(-c3cc4nccc(-c5ccc(N6CCCC6)c(C#N)c5)c4o3)cc2)CC1 [Compound A74]	> 6.52	> 6.52
